**Q.** With `COC(=O)c1nc(-c2ccc(C)c(OC)c2F)cc(N)c1Cl` as the compound, how does the melting point read?
**A.** Its melting point is 95 to 96 °C.

**Q.** Which melting point does the source give for `CCC1CC2=CC(O)CCC2C2CCC3(C)C(O)CCC3C12` (stereo not given) here?
**A.** The melting point was 93 to 95 °C.

**Q.** Which melting point does the source give for `CCn1cc(C(=O)O)c(=O)c2cc(F)c(N3CCNC(COC(C)C)C3)cc21` (stereo not given) here?
**A.** Its melting point is 144 to 146 °C.

**Q.** Which melting point does the source give for `N#Cc1ccc(-c2ccc3ccccc3c2)cc1Cn1cncn1` here?
**A.** The melting point was 119 to 121 °C.

**Q.** For `CCCCNc1cc(C(=O)OCC#N)cc(S(N)(=O)=O)c1Oc1ccccc1`, which melting point is on record?
**A.** Its melting point is 159 to 161 °C.

**Q.** For `COc1ccc2c(c1)/C(=C/C#N)C(c1ccccc1)C2` (stereo not given), which melting point is on record?
**A.** Its melting point is 112 to 114 °C.

**Q.** With `COC(=S)CCC[C@@H](O)[C@@H](c1ccccc1)c1ccc2ccccc2c1` (relative stereo) as the compound, how does the melting point read?
**A.** The melting point was 90 °C.

**Q.** For `O=C(c1ccc(F)c(Cl)c1)c1ccc(F)c(Cl)c1`, which melting point is on record?
**A.** Its melting point is 93 °C.

**Q.** For `Cc1c(-c2ccc(O)cc2)nnn1-c1ccc(C(F)(F)F)cc1Cl`, which melting point is on record?
**A.** The melting point was 176 to 177 °C.

**Q.** Which melting point does the source give for `NS(=O)(=O)c1cc2c(s1)S(=O)CC(=O)N2` (stereo not given) here?
**A.** Its melting point is 222 to 223 °C.

**Q.** Which melting point does the source give for `O=C(Nc1c[nH]nc1C(=O)NCCOc1ccccc1)c1ccccn1` here?
**A.** The melting point was 182 to 183 °C.

**Q.** Which melting point does the source give for `CC1(CN2CCN(C(=O)NCC=Cc3ccc(C(F)(F)F)cc3)CC2)Cn2cc([N+](=O)[O-])nc2O1` (stereo not given) here?
**A.** Its melting point is 105 to 107 °C.

**Q.** With `CC1(C)CN(Cc2cc(F)ccc2F)c2cc(I)cnc2N1` as the compound, how does the melting point read?
**A.** Its melting point is 168 to 169 °C.

**Q.** For `C#CCOC(=O)N1c2ccccc2C(=O)Nc2cccnc21`, which melting point is on record?
**A.** The melting point was 213 °C.

**Q.** Which melting point does the source give for `CC(C)N1Cc2cccc(F)c2N(CCN2CC=C(c3c[nH]c4cc(F)ccc34)CC2)S1(=O)=O` here?
**A.** Its melting point is 199 to 201 °C.

**Q.** For `c1ccc(C(c2ccccc2)N2CCN(CCCOc3ccc4nncn4n3)CC2)cc1`, which melting point is on record?
**A.** Its melting point is 132 to 134 °C.

**Q.** Which melting point does the source give for `CC(=O)OCCc1sc2nc(=NS(=O)(=O)c3ccc(C)cc3)sn2c1-c1ccc2c(c1)CCCC2` here?
**A.** The melting point was 126 to 127 °C.

**Q.** With `COC(=O)C1(c2ccc(OCCN)cc2)CC1` as the compound, how does the melting point read?
**A.** Its melting point is 119 to 122 °C.

**Q.** Which melting point does the source give for `O=C(CCl)Nc1ccc2cn[nH]c2c1` here?
**A.** The melting point was 155 to 160 °C.

**Q.** With `O=C(O)C=CC(=O)c1ccccc1O` as the compound, how does the melting point read?
**A.** The melting point was 172 to 173 °C.

**Q.** Which melting point does the source give for `Cc1c(NC(=O)c2ccc(-c3ccc(F)cc3)cc2F)ccc2cc(CN3CCCCC3)cnc12` here?
**A.** Its melting point is 186 to 187 °C.

**Q.** For `COC(=O)[C@H](Cc1cc(F)cc(F)c1)NC(=O)OCc1ccccc1`, which melting point is on record?
**A.** Its melting point is 54 °C.

**Q.** For `Cn1c(C=Cc2ccccc2)cnc1[N+](=O)[O-]`, which melting point is on record?
**A.** The melting point was 170 to 180 °C.

**Q.** With `CC1(C)COC(C(=O)/C=C/[C@@H]2[C@H]3CC(=O)O[C@H]3C[C@H]2OC(=O)c2ccccc2)OC1` as the compound, how does the melting point read?
**A.** The melting point was 141 °C.

**Q.** Which melting point does the source give for `Cc1c(NC(=O)c2ccc(-c3ccc(F)cc3)cc2)ccc2cc(C(C)N3CCCC3)cnc12` (stereo not given) here?
**A.** The melting point was 179 to 182 °C.

**Q.** With `O=CN1CCN(C2=C(Cl)C(=O)c3nsnc3C2=O)CC1` as the compound, how does the melting point read?
**A.** The melting point was 191 to 194 °C.

**Q.** With `CCCC(=O)c1cnc2cc(COC(=O)c3ccccc3)ccc2c1Nc1ccccc1C` as the compound, how does the melting point read?
**A.** The melting point was 110 to 112 °C.

**Q.** Which melting point does the source give for `Cc1ccc2c(c1)c1cc(-c3cccc(Br)c3)c(=O)n(C)c1n2C` here?
**A.** The melting point was 215 to 216 °C.

**Q.** Which melting point does the source give for `Cc1cc2c3c(cccc3c1)C(=O)N(O)C2=O` here?
**A.** Its melting point is 251 to 253 °C.

**Q.** For `Cn1ncnc1COc1nc2c(-c3ccc(F)cc3)nncn2c1-c1ccccc1`, which melting point is on record?
**A.** Its melting point is 130 °C.

**Q.** With `CC1=NC(C)(C)N(O)C1(C)C` as the compound, how does the melting point read?
**A.** Its melting point is 127 to 128 °C.

**Q.** Which melting point does the source give for `COc1cc(C(=O)CS(C)(=O)=O)cc(OC)c1N(C)C` here?
**A.** The melting point was 111 to 112 °C.

**Q.** For `N#CCC(=O)N(N)c1c(Cl)cc(Cl)cc1Cl`, which melting point is on record?
**A.** Its melting point is 166 to 168 °C.

**Q.** For `O=C(NCC12CC3CC(CC(C3)C1)C2)c1cc(O)ccc1Cl`, which melting point is on record?
**A.** The melting point was 263 to 264 °C.

**Q.** For `CC(C)(C)OC(=O)N1CCN(Cc2ccccc2)C(=O)C1`, which melting point is on record?
**A.** Its melting point is 89 to 90 °C.

**Q.** For `Cc1ccc(/C=C/C(=O)N[C@@H]2N=C(c3ccccc3)c3ccccc3N(C)C2=O)cc1`, which melting point is on record?
**A.** The melting point was 133 to 135 °C.

**Q.** Which melting point does the source give for `CCCCN(CCCC)C(=O)NCCc1ccc(-c2csc(NC(=O)OC(C)(C)C)n2)cc1` here?
**A.** Its melting point is 70 to 75 °C.

**Q.** With `O=C(O)c1ccc(C(F)(F)F)cc1-c1ccc2c(c1)OC[C@H](Cc1ccccc1)[C@H]2O` as the compound, how does the melting point read?
**A.** Its melting point is 142 °C.

**Q.** With `Cc1ccccc1C=C1CCc2c1oc1ccc(C(=O)O)cc1c2=O` as the compound, how does the melting point read?
**A.** Its melting point is > 300 °C.

**Q.** For `O=C(O)C(Nc1ccc2ccccc2c1)c1c(Cl)cccc1Cl` (stereo not given), which melting point is on record?
**A.** Its melting point is 94.5 °C.

**Q.** For `CCOC(=O)Cn1ncc(-c2ccccc2)c1-c1ccc(N(C)C)cc1`, which melting point is on record?
**A.** Its melting point is 99 to 101 °C.

**Q.** Which melting point does the source give for `NC(=O)c1ccccc1Nc1ccncc1` here?
**A.** Its melting point is 206 to 209 °C.

**Q.** For `Nc1nc(-n2cc(C(=O)O)c(=O)c3cc(F)c(F)c(Br)c32)c(F)cc1F`, which melting point is on record?
**A.** The melting point was 272 to 278 °C.

**Q.** Which melting point does the source give for `CCCCNc1cc(C(=O)OC)cc(S(N)(=O)=O)c1Oc1ccccc1` here?
**A.** Its melting point is 146 °C.

**Q.** Which melting point does the source give for `CCN1CC(=O)N(c2cc(F)ccc2C)C1=S` here?
**A.** Its melting point is 98 to 100 °C.

**Q.** Which melting point does the source give for `N#CC=Cc1ccc(Cl)c(Cl)c1` here?
**A.** The melting point was 98.2 °C.

**Q.** With `COC(=O)c1cc(Br)c2cc(Cc3ccc(F)cc3)cnc2c1O` as the compound, how does the melting point read?
**A.** Its melting point is 152 °C.

**Q.** For `Cc1ccccc1Sc1ccc2c(c1)CCC1N(C)C(=O)CCC21C` (single isomer, unassigned; (+)), which melting point is on record?
**A.** The melting point was 105 to 106 °C.

**Q.** Which melting point does the source give for `COC(=O)C(=CN(C)C)c1sc(Cl)nc1COc1ccccc1` here?
**A.** Its melting point is 114 °C.

**Q.** With `COC(=O)c1ccn2c1C(C(=O)OC)CCC2` (stereo not given) as the compound, how does the melting point read?
**A.** The melting point was 108 °C.

Reference: a melting point compilation (Tetko et al.; mined from patent text by program, amines drawn as free bases though some values may be those of a salt)
